Legend:
Design in all cases: unit not given here
[1] = biological target: T1, human TLR8 (wild type sequence) (Homo sapiens, UniProt Q9NR97); assay: TLR8 cellular NFκB-luc reporter assay, wild type TLR8; assay type: cell-based; details: lowest effective concentration, wild type TLR8 (compounds 74 onward)
T1 construct: expressed in transfected cells; host or cells: HEK293
T1 sequence (Q9NR97 27-1041): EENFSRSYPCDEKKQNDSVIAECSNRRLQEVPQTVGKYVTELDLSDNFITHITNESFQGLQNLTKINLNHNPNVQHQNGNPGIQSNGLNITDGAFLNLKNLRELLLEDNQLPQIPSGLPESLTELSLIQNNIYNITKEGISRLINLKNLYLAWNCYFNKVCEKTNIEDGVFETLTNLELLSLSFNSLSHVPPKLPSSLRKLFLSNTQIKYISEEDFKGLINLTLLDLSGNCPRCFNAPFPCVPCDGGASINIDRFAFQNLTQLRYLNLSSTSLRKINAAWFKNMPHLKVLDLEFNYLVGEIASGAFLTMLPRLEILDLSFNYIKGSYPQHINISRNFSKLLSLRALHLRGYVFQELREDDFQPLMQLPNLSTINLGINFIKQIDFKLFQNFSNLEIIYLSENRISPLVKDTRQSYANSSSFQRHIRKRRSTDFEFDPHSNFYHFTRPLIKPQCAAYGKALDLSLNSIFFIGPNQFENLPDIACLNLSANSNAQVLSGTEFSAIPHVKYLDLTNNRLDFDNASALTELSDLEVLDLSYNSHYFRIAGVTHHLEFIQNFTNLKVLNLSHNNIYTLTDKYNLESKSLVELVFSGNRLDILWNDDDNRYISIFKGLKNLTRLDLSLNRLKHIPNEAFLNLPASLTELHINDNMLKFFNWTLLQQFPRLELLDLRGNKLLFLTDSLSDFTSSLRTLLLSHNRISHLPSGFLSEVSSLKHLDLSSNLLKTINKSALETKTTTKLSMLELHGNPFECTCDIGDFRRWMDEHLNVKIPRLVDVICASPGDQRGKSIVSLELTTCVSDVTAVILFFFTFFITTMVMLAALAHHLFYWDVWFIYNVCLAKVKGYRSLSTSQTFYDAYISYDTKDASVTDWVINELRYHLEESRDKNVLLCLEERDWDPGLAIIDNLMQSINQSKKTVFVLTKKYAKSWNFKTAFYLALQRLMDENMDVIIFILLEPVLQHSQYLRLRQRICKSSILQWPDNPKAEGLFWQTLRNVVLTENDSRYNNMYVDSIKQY
Method in brief: (§1)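 Luciferase signal read after 6 h compound incubation at 37 °C in HEK293 cells carrying transiently transfected TLR7 or TLR8 (wild type or LRR2-deletion) and NFκB-luc. Values are lowest effective concentrations from quadruplicate dose-response curves, effect ≥2-fold above assay SD.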

[2] = biological target: T2, human TLR7 (wild type sequence) (Homo sapiens, UniProt Q9NYK1); assay: TLR7 cellular NFκB-luc reporter assay, wild type TLR7; assay type: cell-based; details: lowest effective concentration, wild type TLR7 (compounds 74 onward)
T2 construct: expressed in transfected cells; host or cells: HEK293
T2 sequence (Q9NYK1 27-1049): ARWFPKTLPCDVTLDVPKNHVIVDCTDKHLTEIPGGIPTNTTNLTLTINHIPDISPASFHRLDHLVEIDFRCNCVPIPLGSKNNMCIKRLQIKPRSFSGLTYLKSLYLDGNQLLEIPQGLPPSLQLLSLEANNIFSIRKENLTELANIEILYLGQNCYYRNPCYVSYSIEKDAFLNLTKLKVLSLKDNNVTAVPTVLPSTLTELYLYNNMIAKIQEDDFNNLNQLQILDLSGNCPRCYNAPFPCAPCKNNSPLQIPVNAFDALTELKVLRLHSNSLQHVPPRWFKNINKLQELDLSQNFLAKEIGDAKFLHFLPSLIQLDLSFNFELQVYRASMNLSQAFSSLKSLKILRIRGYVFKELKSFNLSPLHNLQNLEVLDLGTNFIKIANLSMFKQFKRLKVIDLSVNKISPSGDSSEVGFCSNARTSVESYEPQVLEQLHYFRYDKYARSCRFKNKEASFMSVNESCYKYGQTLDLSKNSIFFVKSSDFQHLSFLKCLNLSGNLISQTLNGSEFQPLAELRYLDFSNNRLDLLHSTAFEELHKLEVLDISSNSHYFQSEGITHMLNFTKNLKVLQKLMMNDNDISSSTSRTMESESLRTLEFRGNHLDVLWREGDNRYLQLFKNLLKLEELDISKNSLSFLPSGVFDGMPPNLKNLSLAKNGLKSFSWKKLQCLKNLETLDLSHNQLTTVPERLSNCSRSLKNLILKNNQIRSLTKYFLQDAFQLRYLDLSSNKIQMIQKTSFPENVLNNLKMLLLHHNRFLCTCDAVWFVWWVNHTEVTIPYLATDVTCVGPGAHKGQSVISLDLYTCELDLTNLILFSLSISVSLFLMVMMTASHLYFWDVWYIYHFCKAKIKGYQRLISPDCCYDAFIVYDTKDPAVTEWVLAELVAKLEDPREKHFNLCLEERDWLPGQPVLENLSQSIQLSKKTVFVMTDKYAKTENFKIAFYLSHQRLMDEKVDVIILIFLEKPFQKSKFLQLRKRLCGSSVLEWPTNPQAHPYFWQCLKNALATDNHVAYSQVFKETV
Method in brief: as §1

[3] = system: interferon-stimulated responsive elements (ISRE) in HEK-ISREluc cells; assay: Activation of ISRE promoter elements by conditioned media from compound-treated PBMC; assay type: cell-based, human; details: conditioned media from compound-treated PBMC on HEK-ISREluc cells
Experimental: The potential of compounds to induce IFN-I was also evaluated by measuring the activation of interferon-stimulated responsive elements (ISRE) by conditioned media from PBMC. […] The plasmid pISRE-Luc from Clontech (ref. 631913) contains 5 copies of this ISRE element, followed by the firefly luciferase ORF. A HEK293 cell line stably transfected with pISRE-Luc (HEK-ISREluc) was established to profile of the conditioned PBMC cell culture media.
Briefly, PBMCs were prepared from buffy coats of at least two donors using a standard Ficoll centrifugation protocol. Isolated PBMCs were resuspended in RPMI medium supplemented with 10% human AB serum and 2×10^5 cells/well were dispensed into 384-well plates containing compounds (70 μL total volume). After overnight incubation, 10 μL of supernatant was transferred to 384-well plates containing 5×10^3 HEK-ISREluc cells/well in 30 μL (plated the day before). Following 24 hours of incubation, activation of the ISRE elements was measured by assaying luciferase activity using 40 μL/well Steady Lite Plus substrate (Perkin Elmer) and measured with ViewLux ultraHTS microplate imager (Perkin Elmer). The stimulating activity of each compound on the HEK-ISREluc cells was reported as LEC value, defined as the compound concentration applied to the PBMCs resulting in a luciferase activity at least two fold above the standard deviation of the assay. The LEC in turn indicates the degree of ISRE activation on transfer of a defined amount of PBMC culture medium. Recombinant interferon α-2a (Roferon-A) was used as a standard control compound.
For a given compound, the LEC value obtained from this assay were in the same range as the EC50 values obtained from the “suppression of HCV replication assay.” Thus, it is possible to compare the potential of compounds to induce IFN-I by PBMC, measured by either of the 2 assays.

| SMILES | TLR 8 wt LEC [1] | TLR 7 wt LEC [2] | HEK-ISREluc LEC [3] |
| --- | --- | --- | --- |
| CCC[C@@H](CO)Nc1nc(N)ncc1OCc1ncc(C)c(OC)c1C [Compound 76] | 0.055 | 0.021 | 0.008 |
| CCCCNc1nc(N)ncc1OCc1cccc(CO)c1 [Compound 77] | 0.623 | 0.449 | 0.137 |
| CCCC[C@@H](CO)Nc1nc(N)ncc1OCc1cc(C)nn1C [Compound 79] | 0.329 | 1.620 | 0.235 |
| CCCC[C@@H](CO)Nc1nc(N)ncc1OCc1cccc(C(N)=O)n1 [Compound 80] | 0.041 | 0.560 | 0.027 |
| CCCC[C@@H](CCO)Nc1nc(N)ncc1OCc1cc(C)nn1C [Compound 81] | 0.429 | 0.101 | 0.086 |
| CCCCNc1nc(N)ncc1OCc1c[nH]nn1 [Compound 86] | 3.750 | 0.646 | 0.131 |
| CCCC[C@@H](CCOC(=O)NCC)Nc1nc(N)ncc1OC [Compound 89] | 6.670 | 1.670 | 0.526 |

Source: patent publication US11541050B2, “Pyrimidine derivatives for the treatment of viral infections” (JANSSEN SCIENCES IRELAND UC, priority 2011, dated 2023)
